For one assay, the target named is T1, Matrix metalloprotease1 (Homo sapiens, UniProt P03956).
T1 sequence (P03956 100-469): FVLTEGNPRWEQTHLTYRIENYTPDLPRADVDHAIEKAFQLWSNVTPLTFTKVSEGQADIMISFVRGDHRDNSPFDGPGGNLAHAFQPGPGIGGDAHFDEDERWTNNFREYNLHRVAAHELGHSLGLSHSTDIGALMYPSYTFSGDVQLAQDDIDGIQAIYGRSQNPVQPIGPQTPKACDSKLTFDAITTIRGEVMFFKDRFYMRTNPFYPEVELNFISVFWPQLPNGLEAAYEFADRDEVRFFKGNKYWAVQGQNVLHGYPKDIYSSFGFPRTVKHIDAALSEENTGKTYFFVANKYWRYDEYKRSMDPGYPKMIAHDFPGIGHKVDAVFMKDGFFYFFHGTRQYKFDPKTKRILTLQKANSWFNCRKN
The assay can be described thus: biochemical. Particulars: read-out: Percentage inhibition (%).

The test system of assay [1] is serine protease NS3 (a.a. 3-181) from Hepatitis C virus genotype 1b (mutant R155Q).
The target in the next assay is T2, A20 (Homo sapiens, UniProt P21580).
T2 sequence (P21580 1-790): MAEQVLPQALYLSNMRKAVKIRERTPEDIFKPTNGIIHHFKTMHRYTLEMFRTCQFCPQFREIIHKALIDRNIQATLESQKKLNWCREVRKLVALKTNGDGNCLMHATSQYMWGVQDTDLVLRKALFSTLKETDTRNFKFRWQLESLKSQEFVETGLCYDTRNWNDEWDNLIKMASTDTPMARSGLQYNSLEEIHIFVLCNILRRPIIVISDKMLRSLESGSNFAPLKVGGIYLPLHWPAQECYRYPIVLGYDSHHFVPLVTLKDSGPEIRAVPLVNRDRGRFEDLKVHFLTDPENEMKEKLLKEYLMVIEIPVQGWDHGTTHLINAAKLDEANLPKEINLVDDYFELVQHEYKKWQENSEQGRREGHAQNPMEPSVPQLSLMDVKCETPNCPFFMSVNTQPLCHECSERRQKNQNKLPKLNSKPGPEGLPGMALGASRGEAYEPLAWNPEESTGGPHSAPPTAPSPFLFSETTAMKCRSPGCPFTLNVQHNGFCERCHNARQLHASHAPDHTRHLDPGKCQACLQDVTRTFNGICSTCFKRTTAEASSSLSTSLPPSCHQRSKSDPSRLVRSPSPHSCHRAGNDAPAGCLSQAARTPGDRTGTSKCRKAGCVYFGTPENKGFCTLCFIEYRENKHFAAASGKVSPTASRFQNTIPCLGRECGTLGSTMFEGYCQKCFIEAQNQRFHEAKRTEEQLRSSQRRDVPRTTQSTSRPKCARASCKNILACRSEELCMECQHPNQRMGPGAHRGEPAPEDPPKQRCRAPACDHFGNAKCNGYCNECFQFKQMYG
The assay can be described thus: biochemical. As to conditions: read-out: Percentage inhibition (%).

For another assay, the target named is Cathepsin L (Homo sapiens, UniProt P07711). The assay can be described thus: biochemical. As to conditions: read-out: Percentage inhibition (%).
A further assay addresses 5-HT1A (h) (Homo sapiens, UniProt P08908). Put plainly: biochemical. As to conditions: read-out: % Inhibition of Specific Binding.
In another assay the target is kappa (h) (KOP) (Homo sapiens, UniProt P41145). The assay can be described thus: biochemical. As to conditions: read-out: % Inhibition of Specific Binding.
In the next assay the target is T3, Cathepsin F (Homo sapiens, UniProt Q9UBX1).
T3 sequence (Q9UBX1 271-484): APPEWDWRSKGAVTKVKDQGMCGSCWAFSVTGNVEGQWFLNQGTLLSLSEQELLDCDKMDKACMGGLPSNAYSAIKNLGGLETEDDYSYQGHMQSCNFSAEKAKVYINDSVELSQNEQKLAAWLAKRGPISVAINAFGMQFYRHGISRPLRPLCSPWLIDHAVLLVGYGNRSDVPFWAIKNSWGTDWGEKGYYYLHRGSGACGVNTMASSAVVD
The assay can be described thus: biochemical. As to conditions: read-out: Percentage inhibition (%).

The next assay deals with T4, Caspase-3 (Homo sapiens, UniProt P42574).
T4 sequence (P42574 29-175 limits assumed): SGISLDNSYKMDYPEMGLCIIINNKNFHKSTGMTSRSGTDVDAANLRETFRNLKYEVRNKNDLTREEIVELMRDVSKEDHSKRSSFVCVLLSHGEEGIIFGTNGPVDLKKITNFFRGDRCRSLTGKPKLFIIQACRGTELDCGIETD
T4 sequence (P42574 176-277 limits assumed): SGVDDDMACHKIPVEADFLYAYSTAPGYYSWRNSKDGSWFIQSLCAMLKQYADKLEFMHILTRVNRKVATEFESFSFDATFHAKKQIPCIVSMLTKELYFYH
The assay can be described thus: biochemical. As to conditions: read-out: Percentage inhibition (%).

Another assay addresses DPP8 (Homo sapiens, UniProt Q6V1X1). The assay can be described thus: biochemical. Particulars: read-out: Percentage inhibition (%).
In assay [2] the test system is serine protease NS3 (a.a. 3-181) from Hepatitis C virus genotype 1b (mutant D168V).
In a further assay the target is DPP9 (Homo sapiens, UniProt Q86TI2). The assay can be described thus: biochemical. Particulars: read-out: Percentage inhibition (%).

Where two headings read alike, the source gives them in different places. Numbered stars: 1 amine (or outer) side, 2 acyl side, 3 side chain; on linkers, the order of the positions; unused ones are H or OH. Bridge positions count the residues as written; N and C are the ends. Peptide text beside a SMILES is read from it. * marks the point of attachment. X1 = O=C(O)CN1CCN(CC(=O)O)CCN(CC(=O)N2CCN(Cc3cc(C[*:1])cc(C[*:2])c3)CC2)CCN(CC(=O)O)CC1; Hexanoyl = CCCCCC(=O)*

Broadly, the inhibition is the drop in the measured response relative to a control, in per cent.

Chain of DPP8 (Q6V1X1 whole entry, species assumed): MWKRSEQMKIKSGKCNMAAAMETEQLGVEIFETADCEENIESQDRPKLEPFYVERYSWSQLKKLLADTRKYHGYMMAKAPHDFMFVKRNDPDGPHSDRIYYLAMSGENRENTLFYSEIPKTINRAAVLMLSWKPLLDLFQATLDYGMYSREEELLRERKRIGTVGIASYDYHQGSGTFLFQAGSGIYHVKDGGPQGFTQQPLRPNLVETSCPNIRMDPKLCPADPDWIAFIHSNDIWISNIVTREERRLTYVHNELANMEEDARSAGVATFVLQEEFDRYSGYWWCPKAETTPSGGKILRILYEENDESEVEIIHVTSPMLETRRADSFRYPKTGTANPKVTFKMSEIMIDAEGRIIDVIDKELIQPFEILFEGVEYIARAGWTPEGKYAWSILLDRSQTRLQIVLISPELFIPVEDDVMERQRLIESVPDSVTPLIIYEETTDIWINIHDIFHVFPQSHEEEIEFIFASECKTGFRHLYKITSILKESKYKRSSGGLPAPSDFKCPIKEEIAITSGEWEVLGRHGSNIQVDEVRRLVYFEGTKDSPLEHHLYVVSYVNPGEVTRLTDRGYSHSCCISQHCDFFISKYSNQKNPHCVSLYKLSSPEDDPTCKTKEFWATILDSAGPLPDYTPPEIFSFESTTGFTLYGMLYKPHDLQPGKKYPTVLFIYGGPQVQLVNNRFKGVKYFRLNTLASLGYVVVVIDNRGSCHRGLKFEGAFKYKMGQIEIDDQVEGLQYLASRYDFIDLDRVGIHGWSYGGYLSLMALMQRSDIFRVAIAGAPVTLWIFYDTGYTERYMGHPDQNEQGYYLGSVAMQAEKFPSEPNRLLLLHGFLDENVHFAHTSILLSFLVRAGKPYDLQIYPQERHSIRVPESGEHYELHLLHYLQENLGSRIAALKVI
Chain of DPP9 (Q86TI2 whole entry, species assumed): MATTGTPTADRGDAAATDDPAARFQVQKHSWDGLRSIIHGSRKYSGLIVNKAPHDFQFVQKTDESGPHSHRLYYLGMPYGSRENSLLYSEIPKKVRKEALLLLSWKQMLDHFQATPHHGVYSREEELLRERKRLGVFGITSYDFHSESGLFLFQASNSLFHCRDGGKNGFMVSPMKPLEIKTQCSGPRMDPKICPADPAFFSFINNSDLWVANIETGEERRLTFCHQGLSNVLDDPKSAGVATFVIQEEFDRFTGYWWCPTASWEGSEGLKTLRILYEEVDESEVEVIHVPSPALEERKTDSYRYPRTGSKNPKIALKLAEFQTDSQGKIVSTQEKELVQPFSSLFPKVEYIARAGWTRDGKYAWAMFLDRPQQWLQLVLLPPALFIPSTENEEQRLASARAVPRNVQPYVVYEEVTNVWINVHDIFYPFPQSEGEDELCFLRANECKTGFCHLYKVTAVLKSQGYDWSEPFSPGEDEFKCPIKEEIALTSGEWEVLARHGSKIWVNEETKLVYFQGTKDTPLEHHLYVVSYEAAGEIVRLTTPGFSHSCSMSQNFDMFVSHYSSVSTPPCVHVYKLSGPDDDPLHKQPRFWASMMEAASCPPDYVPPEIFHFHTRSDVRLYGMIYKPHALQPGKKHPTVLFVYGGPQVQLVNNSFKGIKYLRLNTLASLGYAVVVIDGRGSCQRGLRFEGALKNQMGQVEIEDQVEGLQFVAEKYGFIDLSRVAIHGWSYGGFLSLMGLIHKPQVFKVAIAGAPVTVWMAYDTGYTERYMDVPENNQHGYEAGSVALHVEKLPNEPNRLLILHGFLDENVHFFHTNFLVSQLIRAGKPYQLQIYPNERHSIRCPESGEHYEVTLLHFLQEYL
Chain of Cathepsin L (P07711 114-333, species assumed): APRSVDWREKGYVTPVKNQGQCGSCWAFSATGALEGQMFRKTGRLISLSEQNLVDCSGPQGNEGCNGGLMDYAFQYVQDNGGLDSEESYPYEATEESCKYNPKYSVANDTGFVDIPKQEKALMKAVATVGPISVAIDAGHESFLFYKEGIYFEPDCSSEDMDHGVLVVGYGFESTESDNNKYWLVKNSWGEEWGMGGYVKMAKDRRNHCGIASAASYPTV
Chain of 5-HT1A (h) (P08908 whole entry): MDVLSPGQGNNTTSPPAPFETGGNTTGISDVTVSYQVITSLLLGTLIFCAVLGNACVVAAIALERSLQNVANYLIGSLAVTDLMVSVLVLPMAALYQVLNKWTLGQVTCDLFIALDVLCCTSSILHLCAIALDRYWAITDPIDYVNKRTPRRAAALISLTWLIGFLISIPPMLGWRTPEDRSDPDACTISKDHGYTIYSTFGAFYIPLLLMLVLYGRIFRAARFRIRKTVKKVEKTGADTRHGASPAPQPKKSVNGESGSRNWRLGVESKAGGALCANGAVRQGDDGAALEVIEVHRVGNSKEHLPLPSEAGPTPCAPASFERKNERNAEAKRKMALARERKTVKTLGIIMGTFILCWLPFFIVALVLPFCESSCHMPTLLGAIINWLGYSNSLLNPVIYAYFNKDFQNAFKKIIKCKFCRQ
Chain of kappa (h) (KOP) (P41145 whole entry): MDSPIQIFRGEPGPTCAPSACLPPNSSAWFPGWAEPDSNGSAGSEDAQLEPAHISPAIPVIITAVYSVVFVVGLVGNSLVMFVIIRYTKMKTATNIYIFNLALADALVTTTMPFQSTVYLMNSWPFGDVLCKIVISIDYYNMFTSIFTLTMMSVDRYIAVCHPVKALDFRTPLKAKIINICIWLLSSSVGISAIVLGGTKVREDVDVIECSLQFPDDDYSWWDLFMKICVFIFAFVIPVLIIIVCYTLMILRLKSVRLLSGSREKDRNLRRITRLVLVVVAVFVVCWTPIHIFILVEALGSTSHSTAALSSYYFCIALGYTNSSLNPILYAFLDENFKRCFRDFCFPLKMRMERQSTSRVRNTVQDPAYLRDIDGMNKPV

In the case of `CCCCCC(=O)N[C@H]1CSCc2cc(cc(CN3CCN(C(=O)CN4CCN(CC(=O)O)CCN(CC(=O)O)CCN(CC(=O)O)CC4)CC3)c2)CSC[C@@H](C(=O)N[C@@H](CC(=O)O)C(N)=O)NC(=O)[C@H](Cc2ccccc2)NC(=O)[C@H](CCC(N)=O)NC(=O)[C@H]([C@@H](C)O)NC(=O)[C@@H]2CCCN2C(=O)[C@@H]2CCCN2C1=O` [Compound 3BP-3407, Hex-[Cys(tMeBn(DOTA-PP))-Pro-Pro-Thr-Gln-Phe-Cys]-Asp-NH2] (Hexanoyl-CPPTQFCD-NH2; linker 1-7 via X1), the inhibition at 1 µM is -1% at Matrix metalloprotease1; 2% at A20; 3% on Cathepsin L; -3% on Cathepsin F; 1% on Caspase-3; 1% on DPP8. Besides, the inhibition at 1 µM on DPP9 was -1%. The inhibition at 10 µM on Matrix metalloprotease1 was 2%; on A20, -4%; on Cathepsin L it was 6%; at 5-HT1A (h), -3%; on kappa (h) (KOP), 7%; at Cathepsin F, -24%. For the same compound, the inhibition at 10 µM at Caspase-3 is -2%; on DPP8, 5%; at DPP9, 0%. In addition, the “Percentage inhibition (%)” value in assay [1] (1 μM) is listed as 0%; in assay [1] (10 μM), 2%; in assay [2] (1 μM) it was 1%; in [2] (10 μM), −6%.
`CCCCCC(=O)N[C@H]1CSCc2cc(CSCCNC(=O)CN3CCN(CC(=O)O)CCN(CC(=O)O)CCN(CC(=O)O)CC3)cc(c2)CSC[C@@H](C(=O)O)NC(=O)[C@H](Cc2ccccc2)NC(=O)[C@H](CCC(N)=O)NC(=O)[C@H]([C@@H](C)O)NC(=O)[C@@H]2CCCN2C(=O)[C@@H]2CCCN2C1=O` [Compound 3BP-3554, Hex-[Cys(tMeBn(DOTA-AET))-Pro-Pro-Thr-Gln-Phe-Cys]-OH]: the inhibition at 1 µM at Matrix metalloprotease1 is 1%; on A20, 1%; on Cathepsin L it was 0%; at Cathepsin F, -23%; at Caspase-3, -2%; on DPP8 it was 1%. In addition, on DPP9, the inhibition at 1 µM is -1%. Also, the inhibition at 10 µM at Matrix metalloprotease1 was -7%; on A20 it was 0%; at Cathepsin L, -6%; on 5-HT1A (h), -5%; at kappa (h) (KOP), 10%; on Cathepsin F, -25%. Also, the inhibition at 10 µM on Caspase-3 is -1%; on DPP8, 11%; on DPP9 it was -5%. Moreover, the “Percentage inhibition (%)” value in [1] (1 μM) is on record as 0%; in assay [1] (10 μM) it was −5%; in assay [2] (1 μM) it was −2%; in assay [2] (10 μM), −17%.

For the origin of these results see patent US12427210B2, “Compounds comprising a fibroblast activation protein ligand and use thereof” (priority 2019, dated 2025).
